How the values were obtained:
wild poinsettia [1] = assay: Test E postemergence; format: in vivo, Euphorbia heterophylla
In short: (§1)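 Response was scored visually on a 0-100 scale (100 = complete control) versus controls after 14 to 21 days in the greenhouse. Test chemicals, formulated with surfactant in a non-phytotoxic solvent mixture, had been applied preemergence to seeds in silt loam soil or postemergence to 1- to 4-leaf plants in potting medium.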

ducksalad = assay: Test C flooded paddy test; format: in vivo, Heteranthera limosa; conditions: Flood, scale 0 to 100 (0 no effect, 100 complete control), 13 to 15 days
In short: (§2)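 Flooded 3 cm over soil; compound into paddy water; depth kept constant. Greenhouse 13–15 d.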

field bindweed = assay: Test E postemergence; format: in vivo, Convolvulus arvensis
In short: as §1

giant foxtail = assay: Test E preemergence; format: in vivo, Setaria faberii; conditions: for Foxtail, Giant plant response rating: scale 0 to 100 (0 no effect, 100 complete control); for Plant response rating, Foxtail, Giant: scale 0 to 100, 0 no effect, 100 complete control
In short: as §1

sandbur = assay: Test E postemergence; format: in vivo, Cenchrus echinatus
In short: as §1

fall panicum = assay: Test E preemergence; format: in vivo, Panicum dichotomiflorum; conditions: for Panicum, Fall plant response rating: scale 0 to 100 (0 no effect, 100 complete control); for Plant response rating, Panicum, Fall: scale 0 to 100, 0 no effect, 100 complete control
In short: as §1

johnsongrass = assay: Test E preemergence; format: in vivo, Sorghum halepense; conditions: for Johnsongrass plant response rating: scale 0 to 100 (0 no effect, 100 complete control); for Plant response rating, Johnsongrass: scale 0 to 100, 0 no effect, 100 complete control
In short: as §1

wild poinsettia [2] = assay: Test E preemergence; format: in vivo, Euphorbia heterophylla; conditions: for Poinsettia, Wild plant response rating: scale 0 to 100 (0 no effect, 100 complete control); for Plant response rating, Poinsettia, Wild: scale 0 to 100, 0 no effect, 100 complete control
In short: as §1

Brazilian crabgrass = assay: Test E preemergence; format: in vivo, Digitaria horizontalis; conditions: for Crabgrass, Brazil plant response rating: scale 0 to 100 (0 no effect, 100 complete control); for Plant response rating, Crabgrass, Brazil: scale 0 to 100, 0 no effect, 100 complete control
In short: as §1

palmer pigweed = assay: Test E postemergence; format: in vivo, Amaranthus palmeri
In short: as §1

large (Lg) crabgrass = assay: Test E preemergence; format: in vivo, Digitaria sanguinalis; conditions: for Crabgrass, Large plant response rating: scale 0 to 100 (0 no effect, 100 complete control); for Plant response rating, Crabgrass, Large: scale 0 to 100, 0 no effect, 100 complete control
In short: as §1

Italian ryegrass = assay: Test E postemergence; format: in vivo, Lolium multiflorum
In short: as §1

nightshade = assay: Test E preemergence; format: in vivo, Solanum ptycanthum; conditions: for Nightshade plant response rating: scale 0 to 100 (0 no effect, 100 complete control); for Plant response rating, Nightshade: scale 0 to 100, 0 no effect, 100 complete control
In short: as §1

velvetleaf = assay: Test E preemergence; format: in vivo, Abutilon theophrasti; conditions: for Velvetleaf plant response rating: scale 0 to 100 (0 no effect, 100 complete control); for Plant response rating, Velvetleaf: scale 0 to 100, 0 no effect, 100 complete control
In short: as §1

barnyardgrass = assay: Test E preemergence; format: in vivo, Echinochloa crus-galli; conditions: preemergence; for Barnyardgrass plant response rating: scale 0 to 100 (0 no effect, 100 complete control); for Plant response rating, Barnyardgrass: scale 0 to 100, 0 no effect, 100 complete control
In short: as §1

morningglory = assay: Test E preemergence; format: in vivo, Ipomoea coccinea; conditions: for Morningglory plant response rating: scale 0 to 100 (0 no effect, 100 complete control); for Plant response rating, Morningglory: scale 0 to 100, 0 no effect, 100 complete control
In short: as §1

rice = assay: Test C flooded paddy test; format: in vivo, Oryza sativa; conditions: Flood, scale 0 to 100 (0 no effect, 100 complete control), 13 to 15 days
In short: as §2

green foxtail = assay: Test E preemergence; format: in vivo, Setaria viridis; conditions: for Foxtail, Green plant response rating: scale 0 to 100 (0 no effect, 100 complete control); for Plant response rating, Foxtail, Green: scale 0 to 100, 0 no effect, 100 complete control
In short: as §1

[3] = Postemergence, 31 g ai/ha, scale 0 to 100
[4] = Postemergence, 62 g ai/ha, scale 0 to 100
[5] = Postemergence, 125 g ai/ha, scale 0 to 100
[6] = Postemergence, 250 g ai/ha, scale 0 to 100
[7] = postemergence, 16 g ai/ha, scale 0 to 100, 0 no effect, 100 complete control

N#Cc1cnn(-c2c(C#N)cccc2Oc2ncc(Cl)cn2)c1 [Compound 200]
Plant response rating, Poinsettia, Wild (wild poinsettia [1]; [3]): 80
Plant response rating, Poinsettia, Wild (wild poinsettia [1]; [4]): 70
Plant response rating, Poinsettia, Wild (wild poinsettia [1]; [5]): 90
Plant response rating, Poinsettia, Wild (wild poinsettia [1]; [6]): 90
Plant response rating, Poinsettia, Wild (wild poinsettia [1]; [7]): 50
Plant response rating, Ducksalad (ducksalad; 31 g ai/ha): 0
Plant response rating, Ducksalad (ducksalad; 62 g ai/ha): 0
Plant response rating, Ducksalad (ducksalad; 125 g ai/ha): 20
Plant response rating, Ducksalad (ducksalad; 250 g ai/ha): 80
Plant response rating, Field Bindweed (field bindweed; [3]): 70
Plant response rating, Field Bindweed (field bindweed; [4]): 90
Plant response rating, Field Bindweed (field bindweed; [5]): 95
Plant response rating, Field Bindweed (field bindweed; [6]): 95
Plant response rating, Field Bindweed (field bindweed; [7]): 70
Foxtail, Giant plant response rating (giant foxtail; 16 g ai/ha): 0
Foxtail, Giant plant response rating (giant foxtail; 31 g ai/ha): 0
Foxtail, Giant plant response rating (giant foxtail; 62 g ai/ha): 0
Plant response rating, Foxtail, Giant (giant foxtail; 125 g ai/ha): 25
Plant response rating, Foxtail, Giant (giant foxtail; 250 g ai/ha): 70
Plant response rating, Sandbur (sandbur; [3]): 0
Plant response rating, Sandbur (sandbur; [4]): 0
Plant response rating, Sandbur (sandbur; [5]): 0
Plant response rating, Sandbur (sandbur; [6]): 10
Plant response rating, Sandbur (sandbur; [7]): 0
Panicum, Fall plant response rating (fall panicum; 31 g ai/ha): 75
Panicum, Fall plant response rating (fall panicum; 62 g ai/ha): 95
Plant response rating, Panicum, Fall (fall panicum; 125 g ai/ha): 100
Plant response rating, Panicum, Fall (fall panicum; 250 g ai/ha): 100
Johnsongrass plant response rating (johnsongrass; 31 g ai/ha): 15
Johnsongrass plant response rating (johnsongrass; 62 g ai/ha): 25
Plant response rating, Johnsongrass (johnsongrass; 125 g ai/ha): 30
Plant response rating, Johnsongrass (johnsongrass; 250 g ai/ha): 75
Poinsettia, Wild plant response rating (wild poinsettia [2]; 31 g ai/ha): 50
Poinsettia, Wild plant response rating (wild poinsettia [2]; 62 g ai/ha): 50
Plant response rating, Poinsettia, Wild (wild poinsettia [2]; 125 g ai/ha): 90
Plant response rating, Poinsettia, Wild (wild poinsettia [2]; 250 g ai/ha): 95
Crabgrass, Brazil plant response rating (Brazilian crabgrass; 16 g ai/ha): 30
Crabgrass, Brazil plant response rating (Brazilian crabgrass; 31 g ai/ha): 85
Crabgrass, Brazil plant response rating (Brazilian crabgrass; 62 g ai/ha): 100
Plant response rating, Crabgrass, Brazil (Brazilian crabgrass; 125 g ai/ha): 100
Plant response rating, Crabgrass, Brazil (Brazilian crabgrass; 250 g ai/ha): 100
Plant response rating, Pigweed, Palmer (palmer pigweed; [3]): 70
Plant response rating, Pigweed, Palmer (palmer pigweed; [4]): 75
Plant response rating, Pigweed, Palmer (palmer pigweed; [5]): 98
Plant response rating, Pigweed, Palmer (palmer pigweed; [6]): 100
Plant response rating, Pigweed, Palmer (palmer pigweed; [7]): 40
Crabgrass, Large plant response rating (large (Lg) crabgrass; 16 g ai/ha): 5
Crabgrass, Large plant response rating (large (Lg) crabgrass; 31 g ai/ha): 35
Crabgrass, Large plant response rating (large (Lg) crabgrass; 62 g ai/ha): 65
Plant response rating, Crabgrass, Large (large (Lg) crabgrass; 125 g ai/ha): 80
Plant response rating, Crabgrass, Large (large (Lg) crabgrass; 250 g ai/ha): 100
Plant response rating, Ryegrass, Italian (Italian ryegrass; [3]): 0
Plant response rating, Ryegrass, Italian (Italian ryegrass; [4]): 0
Plant response rating, Ryegrass, Italian (Italian ryegrass; [5]): 0
Plant response rating, Ryegrass, Italian (Italian ryegrass; [6]): 0
Plant response rating, Ryegrass, Italian (Italian ryegrass; [7]): 0
Nightshade plant response rating (nightshade; 31 g ai/ha): 10
Nightshade plant response rating (nightshade; 62 g ai/ha): 85
Plant response rating, Nightshade (nightshade; 125 g ai/ha): 100
Plant response rating, Nightshade (nightshade; 250 g ai/ha): 100
Velvetleaf plant response rating (velvetleaf; 31 g ai/ha): 35
Velvetleaf plant response rating (velvetleaf; 62 g ai/ha): 80
Plant response rating, Velvetleaf (velvetleaf; 125 g ai/ha): 100
Plant response rating, Velvetleaf (velvetleaf; 250 g ai/ha): 100
Barnyardgrass plant response rating (barnyardgrass; 16 g ai/ha): 0
Barnyardgrass plant response rating (barnyardgrass; 31 g ai/ha): 0
Barnyardgrass plant response rating (barnyardgrass; 62 g ai/ha): 10
Plant response rating, Barnyardgrass (barnyardgrass; 125 g ai/ha): 60
Plant response rating, Barnyardgrass (barnyardgrass; 250 g ai/ha): 95
Morningglory plant response rating (morningglory; 31 g ai/ha): 20
Morningglory plant response rating (morningglory; 62 g ai/ha): 50
Plant response rating, Morningglory (morningglory; 125 g ai/ha): 90
Plant response rating, Morningglory (morningglory; 250 g ai/ha): 98
Plant response rating, Rice (rice; 31 g ai/ha): 0
Plant response rating, Rice (rice; 62 g ai/ha): 0
Plant response rating, Rice (rice; 125 g ai/ha): 0
Plant response rating, Rice (rice; 250 g ai/ha): 0
Foxtail, Green plant response rating (green foxtail; 16 g ai/ha): 0
Foxtail, Green plant response rating (green foxtail; 31 g ai/ha): 5
Foxtail, Green plant response rating (green foxtail; 62 g ai/ha): 30
Plant response rating, Foxtail, Green (green foxtail; 125 g ai/ha): 75
Plant response rating, Foxtail, Green (green foxtail; 250 g ai/ha): 100
